How the values were obtained:
[1] = test system: vanZ1 (CD1240) transcription in 630Δerm; experiment: vanZ1 expression by qRT-PCR during growth in antimicrobials; assay type: cell-based, Clostridioides difficile
C. difficile 630Δerm = experiment: Minimum inhibitory concentration; assay type: cell-based, Clostridioides difficile; details: with or without LL-37 (Supl. Table 1)

Compound	increase of vanZ1 expression during growth in LL-37 [1]	teicoplanin MIC of 630Δerm whether or not LL-37 was present (C. difficile 630Δerm)
CC[C@H](C)[C@H](NC(=O)[C@H](CCCCN)NC(=O)[C@H](CCC(=O)O)NC(=O)[C@H](CCCCN)NC(=O)[C@H](CO)NC(=O)[C@H](CCCCN)NC(=O)[C@H](CCCNC(=N)N)NC(=O)[C@H](Cc1ccccc1)NC(=O)[C@H](Cc1ccccc1)NC(=O)[C@H](CC(=O)O)NC(=O)CNC(=O)[C@H](CC(C)C)NC(=O)[C@@H](N)CC(C)C)C(=O)NCC(=O)N[C@@H](CCCCN)C(=O)N[C@@H](CCC(=O)O)C(=O)N[C@@H](Cc1ccccc1)C(=O)N[C@@H](CCCCN)C(=O)N[C@@H](CCCNC(=N)N)C(=O)N[C@H](C(=O)N[C@H](C(=O)N[C@@H](CCC(N)=O)C(=O)N[C@@H](CCCNC(=N)N)C(=O)N[C@H](C(=O)N[C@@H](CCCCN)C(=O)N[C@@H](CC(=O)O)C(=O)N[C@@H](Cc1ccccc1)C(=O)N[C@@H](CC(C)C)C(=O)N[C@@H](CCCNC(=N)N)C(=O)N[C@@H](CC(N)=O)C(=O)N[C@@H](CC(C)C)C(=O)N[C@H](C(=O)N1CCC[C@H]1C(=O)N[C@@H](CCCNC(=N)N)C(=O)N[C@H](C(=O)N[C@@H](CCC(=O)O)C(=O)N[C@@H](CO)C(=O)O)[C@@H](C)O)C(C)C)[C@@H](C)CC)C(C)C)[C@@H](C)CC [LL-37]	~ 37 fold	
teicoplanin		remained unchanged

Source: publication PMC6309587 (Anaerobe, 2018)
